These results are taken from patent US6939850B2, “Altered human interleukin-1β convertase (ICE), NEDD-2, and C. elegans ced-3 polypeptides and uses therefor” (Massachusetts Institute of Technology, priority 1992, dated 2005).

Square brackets hold non-standard residues; d marks the D form. * marks the point of attachment. CH2Cl = ClC*

For one assay, the target named is T1, ICE (Homo sapiens, UniProt P29466).
T1 sequence (P29466 120-297): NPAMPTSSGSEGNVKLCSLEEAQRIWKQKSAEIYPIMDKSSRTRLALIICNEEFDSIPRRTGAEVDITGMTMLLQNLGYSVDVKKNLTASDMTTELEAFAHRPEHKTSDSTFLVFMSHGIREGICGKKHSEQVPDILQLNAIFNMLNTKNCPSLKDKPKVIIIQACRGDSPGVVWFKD
T1 sequence (P29466 317-404): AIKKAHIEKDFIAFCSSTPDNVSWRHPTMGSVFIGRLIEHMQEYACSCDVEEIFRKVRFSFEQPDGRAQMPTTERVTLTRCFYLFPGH
Conditions: protease activity of ICE; cited from earlier work.

The test system of the next assay is cervical motoneurons. Kind of assay: Cervical motoneuron cell death in vivo. Details: species or system chick. Conditions: for Pyknotic Cervical Motoneurons on E4.5: mean ±SD. From the text:
The ability of the ICE inhibitors to block cell death in two classes of neurons whose naturally occurring death appears to be independent of target interaction was also studied. First, motoneurons in the cervical spinal cord undergo PCD between E4 and E5, with maximum levels occurring at E4.5.

The subject of another assay is chick spinal motoneurons. Briefly: Motoneuron culture deprived of muscle extract, survival. It is filed as cell-based. Conditions: without muscle extract, treated between 14 and 24 hours, counted after 3 days. From the text:
A tissue culture model system that allows isolation of a relatively pure population of motoneurons whose survival is dependent on muscle extract, a potent source of target-derived trophic support, was used to test the ability of peptide inhibitors of ICE to block motoneuron cell death (Milligan et al., J Neurobiology 25:1005-1016 (1994) and Block-Gallego et al., Development. 111:221-232 (1991)). The death of motoneurons deprived of trophic support in vitro requires new gene expression and occurs by apoptosis (Milligan et al., J. Neurobiology 25:1005-1016 (1994)). Motoneurons deprived of trophic support at the time of plating become irreversibly committed to undergo cell death after 16-18 hours (Milligan et al., J. Neurobiology 25:1005-1016 (1994)). […] When motoneurons are treated with peptide inhibitors in the absence of muscle extract for three days and subsequently supplemented on day three with muscle extract, they continue to survive, and by six days appear as healthy and differentiated as the motoneurons that were continuously supplied with muscle extract (FIGS. 12A, 12B, 15G). Thus, motoneurons rescued for 3 days by ICE inhibitors remain capable of responding to trophic factors present in muscle extract.
Methods for motoneuron cultures. […]

For another assay, the system named is lumbar motoneurons. Briefly: Naturally occurring lumbar motoneuron cell death in vivo. Set-up: species or system chick. The settings on record: mean ±SD; for Pyknotic Lumbar Motoneurons on E8: 15 hours post treatment, single administration of 400 μg on E8; for Healthy Motoneurons (lumbar) on E9 / Pyknotic Motoneurons (lumbar) on E9: 24 hours post treatment. The protocol:
In the first model, embryos were treated with a single dose of an ICE inhibitor or control protease inhibitor on embryonic day 8 (E8), the time of maximum naturally occurring motoneuron cell death (Hamburger et al., J. Morph. 88:49-92 (1951)). Embryos treated in vivo with the peptide inhibitors appeared to develop normally and there were no gross abnormalties. […] 24 hours after treatment there is a similar reduction in the number of pyknotic cells and a significant increase in the number of healthy motoneurons (Table 6B). […] The ability of ICE inhibitors to block the naturally occurring cell death of interdigital cells in the developing limb was also studied. These cells undergo PCD as a means of sculpting the digits in many vertebrates. When embryos were treated with either ICE inhibitor on embryonic days, E6 and E7, there was a substantial reduction in the number of pyknotic cells between the digits of the hindlimb (FIG. 14).
Peptides. Two peptide inhibitors of ICE, Acetyl-Tyr-Val-Ala-Asp-aldehyde (Ac-YVAD-CHO) and Acetyl-Tyr-Val-Ala-Asp-chloromethylketone (Ac-YVAD-CMK) and two control peptide inhibitors, Acetyl-Leu-Leu-Arg-aldehyde (Ac-LLR-CHO; Leupeptin) and n-tosyl-Lys-chloromethyl-ketone (Tos-Lys-CMK) were synthesized by Bachem Biosciences (King of Prussia, Pa.) and shown by thin layer chromatography and HPLC to be greater than 98% pure. […] Methods for administration of peptides to examine effects on naturally occurring motoneuron cell death in vivo. Although cell death of lumbar motoneurons occurs between E6 and E12, the peak period of death (i.e., the greatest number of pyknotic cells) occurs on E8 (Oppenheim et al., J Comp. Neurol. 177:87-112 (1978)). For these experiments, embryos were given a single administration of an agent on E8 0 hr and sacrificed 15 hours later. […] Ac-YVAD-CMK and Tos-Lys-CMK were administered in a solution of DMSO/BSA, whereas Ac-YVAD-CHO and leupeptin (Sigma) were in BSA alone. The solutions (50-100 μl) were dropped onto the highly vascularized chorioallantoic membrane through a window in the shell. The control groups included both DMSO and BSA or vehicle alone. Embryos were killed and staged by the Hamburger-Hamilton series (Hamburger and Hamilton, J. Morph. 88:49-92 (1951)). The thoraco-lumbar spinal cord was dissected, fixed in Camoys or Bouins fixative, processed for paraffin histology, serially sectioned (10-12 μm) and stained with either thionin or hematoxylin and eosin. Pyknotic motoneurons were identified based on criteria previously described (Chu-Wang and Oppenheim, J. Comp. Neurol. 177:33-58 (1978); Clarke and Oppenheim In Methods in Cell Biology Series; Cell Death; eds: Schwartz and Osborne. Academic Press. New York, N.Y. In press.) and were counted in every 10th or 20th section through the entire lumbar enlargement. The total number of pyknotic cells were then estimated by multiplying these values by 10 or 20. All cell counts were performed by individuals blinded with regard to drug treatment of the embryos. Methods for limb bud removal experiments. A unilateral limb bud removal was performed on E2 as described previously (Oppenheim et al., J. Comp. Neurol. 177:87-112 (1978)). Because induced cell death following limb removal begins on E5 (before that there is no difference in the number of motoneurons between the operated or unoperated sides) embryos were given one treatment of Ac-YVAD-CHO (40 μg) or BSA (control) at E5-0 hr and another at E5-12 hours (total peptide administered was 80 μg). Animals were killed at E6-0 hr. Methods were the same as described above except the section thickness was 6-8 μm (see Method for Administration of Peptides, above). Methods for limb bud interdigital regions. […]

Assay [1] concerns undifferentiated neurons and precursor cells in the neural tube. Kind of assay: Cell death in the early neural tube in vivo. Set-up: species or system chick.

With “Ac-Tyr-Val-Lys-Asp-CHO (Ac-YVKD-aldehyde; SMILES CC(=O)N[C@@H](Cc1ccc(O)cc1)C(=O)N[C@H](C(=O)N[C@@H](CCCCN)C(=O)N[C@H](C=O)CC(=O)O)C(C)C) [Inhibitor D]”, the inhibition constant Ki (commonly a measure of affinity in units of concentration, obtained from inhibition or displacement) in the assay with ICE was 3 nM.

On to “Acetyl-Tyr-Val-Ala-Asp-chloromethylketone (Ac-YVAD-CH2Cl) [Ac-YVAD-CMK]”, for which, in the assay with cervical motoneurons (compared to control or Ac-LLR-CHO treated animals), the “survival promoting effects on cervical motoneurons” value is on record as “no survival promoting effects”. Further, the “Pyknotic Cervical Motoneurons on E4.5” value in the assay with cervical motoneurons is 26.7 ± 2.2. In addition, the motoneuron death entry in the assay with chick spinal motoneurons is “inhibitory effects on motoneuron death”. In addition, in the assay with lumbar motoneurons, the “Pyknotic Lumbar Motoneurons on E8” value is reported as 216 ± 27, the “Healthy Motoneurons (lumbar) on E9” value is on record as 16,231 ± 755 and the “Pyknotic Motoneurons (lumbar) on E9” value was found to be 200 ± 33. Further, in assay [1] (compared to control animals), the “survival promoting effects on floorplate or dorsal spinal cord cells” value is on record as “no survival promoting effects”. Also, in assay [1] (mean ±SD), the “Pyknotic Cells in the Early Neural Tube, Dorsal Spinal Cord” value is on record as 1.372 ± 0.235 and the “Pyknotic Cells in the Early Neural Tube, Floor Plate” value is recorded as 0.872 ± 0.201.

In the case of Ac-Y[dA]AD-aldehyde [Inhibitor C], the inhibition constant (Ki) at ICE is 1500 nM.

`Cc1ccc(S(=O)(=O)NC(CCCCN)C(=O)CCl)cc1` (stereo not drawn) [Tos-Lys-CMK, n-tosyl-Lys-chloromethyl-ketone]: in the assay on lumbar motoneurons, the “Pyknotic Lumbar Motoneurons on E8” value was 285 ± 31, the “Healthy Motoneurons (lumbar) on E9” value was 13,257 ± 773 and the “Pyknotic Motoneurons (lumbar) on E9” value came to 345 ± 39.

For `CC(=O)N[C@@H](CC(C)C)C(=O)N[C@@H](CC(C)C)C(=O)N[C@H](C=O)CCCNC(=N)N` [Leupeptin, Acetyl-Leu-Leu-Arg-aldehyde], in the assay with cervical motoneurons, the “Pyknotic Cervical Motoneurons on E4.5” value is given as 32.5 ± 7.9. Besides, in the assay on lumbar motoneurons, the “Pyknotic Lumbar Motoneurons on E8” value came out at 310 ± 40, the “Healthy Motoneurons (lumbar) on E9” value is 14,117 ± 971 and the “Pyknotic Motoneurons (lumbar) on E9” value is reported as 297 ± 51.
